Reference: the supplement of paper PMC10307832

Compound: Cc1cnc(CNC(=O)c2c(=O)c3ccc(N4CCCN(C)CC4)nc3n3c2sc2ccccc23)cn1 [CX-5461] + Cc1nc(Nc2ncc(C(=O)Nc3c(C)cccc3Cl)s2)cc(N2CCN(CCO)CC2)n1 [Dasatinib] (partner 0.075 µM)
Experiment: relative viability (nuclei count vs DMSO), 5 days (fraction); higher = more cells survive
Conditions: first compound 0.01 µM
How it was run: (§1)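 Lung cancer cell lines were seeded in 1536-well plates and dosed by pin tool the next day, with either a single drug or a fixed anchor-drug dose combined with five library-drug doses (not always all listed) spaced in √10 steps. Five days later, one step fixed the cells and stained their nuclei (final 0.05% Triton X-100, 1% formaldehyde, 1 ug/ml Hoechst), and nuclei were counted on 4× images. Relative viability is the nuclei count in treated wells divided by the count in vehicle wells, and each value is the median of duplicate plates.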

Row | Cell Line | relative viability
1 | HCC-15 | 0.673
2 | NCI-H1944 | 0.208
3 | PC-14 | 0.312
4 | EKVX | 0.55
5 | LC-2-ad | 0.59
6 | NCI-H2170 | 0.602
7 | NCI-H1975 | 0.367
8 | RERF-LC-KJ | 0.913
9 | ABC-1 | 0.697
10 | SK-MES-1 | 0.339
11 | NCI-H650 | 0.423
12 | PC-3 [JPC-3] | 0.967

Same assay, conditions: first compound 0.03162 µM

Row | Cell Line | relative viability
13 | HCC-15 | 0.666
14 | NCI-H1944 | 0.204
15 | PC-14 | 0.251
16 | EKVX | 0.522
17 | LC-2-ad | 0.713
18 | NCI-H2170 | 0.552
19 | NCI-H1975 | 0.388
20 | RERF-LC-KJ | 0.94
21 | ABC-1 | 0.582
22 | SK-MES-1 | 0.387
23 | NCI-H650 | 0.431
24 | PC-3 [JPC-3] | 1.09

Same assay, conditions: first compound 0.1 µM

Row | Cell Line | relative viability
25 | HCC-15 | 0.655
26 | NCI-H1944 | 0.168
27 | PC-14 | 0.295
28 | EKVX | 0.481
29 | LC-2-ad | 0.546
30 | NCI-H2170 | 0.701
31 | NCI-H1975 | 0.302
32 | RERF-LC-KJ | 0.809
33 | ABC-1 | 0.45
34 | SK-MES-1 | 0.397
35 | NCI-H650 | 0.448
36 | PC-3 [JPC-3] | 1.01

Same assay, conditions: first compound 0.3162 µM

Row | Cell Line | relative viability
37 | HCC-15 | 0.617
38 | NCI-H1944 | 0.14
39 | PC-14 | 0.272
40 | EKVX | 0.554
41 | LC-2-ad | 0.406
42 | NCI-H2170 | 0.619
43 | NCI-H1975 | 0.441
44 | RERF-LC-KJ | 0.924
45 | ABC-1 | 0.384
46 | SK-MES-1 | 0.344
47 | NCI-H650 | 0.482
48 | PC-3 [JPC-3] | 1.04

Same assay, conditions: first compound 1 µM

Row | Cell Line | relative viability
49 | HCC-15 | 0.229
50 | NCI-H1944 | 0.11
51 | PC-14 | 0.0972
52 | EKVX | 0.477
53 | LC-2-ad | 0.27
54 | NCI-H2170 | 0.436
55 | NCI-H1975 | 0.2
56 | RERF-LC-KJ | 0.522
57 | ABC-1 | 0.449
58 | SK-MES-1 | 0.198
59 | NCI-H650 | 0.389
60 | PC-3 [JPC-3] | 0.972

Compound: O=C(Nc1cc(C(F)(F)F)cc(C(F)(F)F)c1)c1cc(Cl)ccc1O [IMD-0354] + Cc1cc(Nc2cc(N3CCN(C)CC3)nc(Sc3ccc(NC(=O)C4CC4)cc3)n2)n[nH]1 [Tozasertib] (partner 0.1 µM)
Experiment: as above
Conditions: first compound 0.04 µM
How it was run: as §1

Row | Cell Line | relative viability
61 | HCC-15 | 0.331
62 | NCI-H1944 | 0.252
63 | PC-14 | 0.675
64 | EKVX | 0.382
65 | LC-2-ad | 0.484
66 | NCI-H2170 | 0.788
67 | NCI-H1975 | 0.814
68 | RERF-LC-KJ | 0.565
69 | ABC-1 | 0.169
70 | SK-MES-1 | 1.14
71 | NCI-H650 | 0.834
72 | PC-3 [JPC-3] | 1

Same assay, conditions: first compound 0.1265 µM

Row | Cell Line | relative viability
73 | HCC-15 | 0.379
74 | NCI-H1944 | 0.245
75 | PC-14 | 0.61
76 | EKVX | 0.397
77 | LC-2-ad | 0.528
78 | NCI-H2170 | 0.779
79 | NCI-H1975 | 0.864
80 | RERF-LC-KJ | 0.644
81 | ABC-1 | 0.181
82 | SK-MES-1 | 0.873
83 | NCI-H650 | 0.745
84 | PC-3 [JPC-3] | 0.707

Same assay, conditions: first compound 0.4 µM

Row | Cell Line | relative viability
85 | HCC-15 | 0.31
86 | NCI-H1944 | 0.206
87 | PC-14 | 0.353
88 | EKVX | 0.269
89 | LC-2-ad | 0.377
90 | NCI-H2170 | 0.377
91 | NCI-H1975 | 0.399
92 | RERF-LC-KJ | 0.411
93 | ABC-1 | 0.174
94 | SK-MES-1 | 0.543
95 | NCI-H650 | 0.644
96 | PC-3 [JPC-3] | 0.572

Same assay, conditions: first compound 1.265 µM

Row | Cell Line | relative viability
97 | HCC-15 | 0.17
98 | NCI-H1944 | 0.208
99 | PC-14 | 0.312
100 | EKVX | 0.456
101 | LC-2-ad | 0.243
102 | NCI-H2170 | 0.624
103 | NCI-H1975 | 0.111
104 | RERF-LC-KJ | 0.274
105 | ABC-1 | 0.118
106 | SK-MES-1 | 0.287
107 | NCI-H650 | 0.36
108 | PC-3 [JPC-3] | 0.567

Same assay, conditions: first compound 4 µM

Row | Cell Line | relative viability
109 | HCC-15 | 0.098
110 | NCI-H1944 | 0.131
111 | PC-14 | 0.076
112 | EKVX | 0.149
113 | LC-2-ad | 0.257
114 | NCI-H2170 | 0.226
115 | NCI-H1975 | 0.148
116 | RERF-LC-KJ | 0.265
117 | ABC-1 | 0.161
118 | SK-MES-1 | 0.215
119 | NCI-H650 | 0.2
120 | PC-3 [JPC-3] | 0.312

Compound: Cc1cnc(CNC(=O)c2c(=O)c3ccc(N4CCCN(C)CC4)nc3n3c2sc2ccccc23)cn1 [CX-5461] + O=C(CCCCCCC(=O)Nc1ccccc1)NO [Vorinostat] (partner 1 µM)
Experiment: as above
Conditions: first compound 0.01 µM
How it was run: as §1

Row | Cell Line | relative viability
121 | HCC-15 | 0.926
122 | NCI-H1944 | 0.538
123 | PC-14 | 0.65
124 | EKVX | 0.738
125 | LC-2-ad | 0.732
126 | NCI-H2170 | 0.887
127 | NCI-H1975 | 0.686
128 | RERF-LC-KJ | 0.724
129 | ABC-1 | 1.2
130 | SK-MES-1 | 1.22
131 | NCI-H650 | 0.462
132 | PC-3 [JPC-3] | 0.765

Same assay, conditions: first compound 0.03162 µM

Row | Cell Line | relative viability
133 | HCC-15 | 0.882
134 | NCI-H1944 | 0.569
135 | PC-14 | 0.797
136 | EKVX | 0.815
137 | LC-2-ad | 0.768
138 | NCI-H2170 | 0.772
139 | NCI-H1975 | 0.719
140 | RERF-LC-KJ | 0.756
141 | SK-MES-1 | 1.22
142 | NCI-H650 | 0.294

Same assay, conditions: first compound 0.1 µM

Row | Cell Line | relative viability
143 | HCC-15 | 0.818
144 | NCI-H1944 | 0.383
145 | PC-14 | 0.533
146 | EKVX | 0.758
147 | LC-2-ad | 0.716
148 | NCI-H2170 | 0.846
149 | NCI-H1975 | 0.684
150 | RERF-LC-KJ | 0.532
151 | ABC-1 | 1.02
152 | SK-MES-1 | 1.13
153 | NCI-H650 | 0.635
154 | PC-3 [JPC-3] | 0.783

Same assay, conditions: first compound 0.3162 µM

Row | Cell Line | relative viability
155 | HCC-15 | 0.834
156 | NCI-H1944 | 0.25
157 | PC-14 | 0.527
158 | EKVX | 0.726
159 | LC-2-ad | 0.659
160 | NCI-H2170 | 0.743
161 | NCI-H1975 | 0.696
162 | RERF-LC-KJ | 0.589
163 | ABC-1 | 0.442
164 | SK-MES-1 | 1.19
165 | NCI-H650 | 0.399
166 | PC-3 [JPC-3] | 0.869

Same assay, conditions: first compound 1 µM

Row | Cell Line | relative viability
167 | HCC-15 | 0.768
168 | NCI-H1944 | 0.271
169 | PC-14 | 0.106
170 | EKVX | 0.784
171 | LC-2-ad | 0.491
172 | NCI-H2170 | 0.703
173 | NCI-H1975 | 0.459
174 | RERF-LC-KJ | 0.54
175 | ABC-1 | 0.394
176 | SK-MES-1 | 0.654
177 | NCI-H650 | 0.312
178 | PC-3 [JPC-3] | 0.72

Compound: Cc1cnc(CNC(=O)c2c(=O)c3ccc(N4CCCN(C)CC4)nc3n3c2sc2ccccc23)cn1 [CX-5461] + CCNC(=O)c1noc(-c2cc(C(C)C)c(O)cc2O)c1-c1ccc(CN2CCOCC2)cc1 [Luminespib] (partner 0.01 µM)
Experiment: as above
Conditions: first compound 0.01 µM
How it was run: as §1

Row | Cell Line | relative viability
179 | HCC-15 | 0.236
180 | NCI-H1944 | 0.854
181 | PC-14 | 0.14
182 | EKVX | 0.868
183 | LC-2-ad | 0.981
184 | NCI-H2170 | 0.636
185 | NCI-H1975 | 0.353
186 | RERF-LC-KJ | 1.28
187 | ABC-1 | 0.531
188 | SK-MES-1 | 0.801
189 | NCI-H650 | 0.767
190 | PC-3 [JPC-3] | 0.726

Same assay, conditions: first compound 0.03162 µM

Row | Cell Line | relative viability
191 | HCC-15 | 0.331
192 | NCI-H1944 | 0.711
193 | PC-14 | 0.163
194 | EKVX | 0.91
195 | LC-2-ad | 1.04
196 | NCI-H2170 | 0.54
197 | NCI-H1975 | 0.249
198 | RERF-LC-KJ | 1.24
199 | ABC-1 | 0.691
200 | SK-MES-1 | 0.975
201 | NCI-H650 | 0.743
202 | PC-3 [JPC-3] | 0.708

Same assay, conditions: first compound 0.1 µM

Row | Cell Line | relative viability
203 | HCC-15 | 0.305
204 | NCI-H1944 | 0.864
205 | PC-14 | 0.222
206 | EKVX | 0.728
207 | LC-2-ad | 0.869
208 | NCI-H2170 | 1.02
209 | NCI-H1975 | 0.43
210 | RERF-LC-KJ | 1.19
211 | ABC-1 | 0.521
212 | SK-MES-1 | 0.695
213 | NCI-H650 | 0.799
214 | PC-3 [JPC-3] | 0.62

Same assay, conditions: first compound 0.3162 µM

Row | Cell Line | relative viability
215 | HCC-15 | 0.359
216 | NCI-H1944 | 0.51
217 | PC-14 | 0.204
218 | EKVX | 0.843
219 | LC-2-ad | 0.925
220 | NCI-H2170 | 0.771
221 | NCI-H1975 | 0.191
222 | RERF-LC-KJ | 1.27
223 | ABC-1 | 0.402
224 | SK-MES-1 | 0.735
225 | NCI-H650 | 0.711
226 | PC-3 [JPC-3] | 0.635

Same assay, conditions: first compound 1 µM

Row | Cell Line | relative viability
227 | HCC-15 | 0.216
228 | NCI-H1944 | 0.672
229 | PC-14 | 0.124
230 | EKVX | 0.689
231 | LC-2-ad | 0.424
232 | NCI-H2170 | 0.554
233 | NCI-H1975 | 0.202
234 | RERF-LC-KJ | 0.687
235 | ABC-1 | 0.303
236 | SK-MES-1 | 0.304
237 | NCI-H650 | 0.364
238 | PC-3 [JPC-3] | 0.721
